Assay results taken from paper PMC8537988, “Re-Use of Caco-2 Monolayers in Permeability Assays—Validation Regarding Cell Monolayer Integrity” (Pharmaceutics, 2021).

System: Caco-2 monolayers
Test: Apical to basolateral permeability of LY through Caco-2 monolayers (Transwell, 12-well)
Format: in vitro ADME, human
Conditions: for LY Papp, µ best fit of Normal distribution to Papp / LY Papp, µ directly from Papp: single sampling at 60 min
Method: Caco-2 cells culture and monolayers preparation was as described in the reference protocol. Cells were maintained in T75 cm^2 flasks in culture medium (DMEM supplemented with 1% (v/v) NEAA, 10% (v/v) heat-inactivated FBS), in a humidified atmosphere of 5% CO2 at 37 °C. As recommended in the reference protocol, the permeability assays were performed using cells in passages 95–105. The cells were thawed on passage 89 and sub-cultured twice a week at or shortly before 90% confluency by a 1:8 split. To avoid seeding aggregated cells and the formation of multilayers in Transwell™ inserts, the cell clusters were disaggregated into single cells by passing them 3 times through a syringe needle of 23 gauges (BD Falcon) before cell counting. Caco-2 cells were seeded at 2.6 × 10^5 cells/cm^2 on 12-well polycarbonate filter inserts. The culture medium (with 1% (v/v) Pen/Strep) was replaced by fresh medium 6 h following seeding and then every 2–3 days thereafter until transport experiments.
The reference protocol was followed in the permeability assays, with slight modifications as required by the new experimental approach. Manipulation of the cell monolayers was conducted under sterile conditions (in the laminar flow hood or incubator). At the day of the experiments, the culture medium was removed and HBSS (further supplemented with 25 mM HEPES, 0.35 g/L sodium bicarbonate, pH 7.4) pre-warmed to 37 °C was added to the donor (0.5 mL) and receiver (1.5 mL) sides to wash the cell monolayers. The plate containing the inserts was placed (lid-covered) in an incubator without CO2 at 37 °C with an orbital shaker (IKA-Schüttler MTS4, JMGS, Lisboa, Portugal) at 50 rpm for 8 min. The washing step was repeated with new HBSS. The TEER was measured in HBSS at 37 °C using a Millicell® ERS-2 voltmeter equipped with a chopstick electrode pair (Merck, Lisboa, Portugal). A filter insert without cells was included in each set of experiments for correction of the TEER value for the background resistance. The resistance values (Ω cm^2) of the cell monolayers were obtained by subtracting the TEER value from blank inserts and multiplying by the surface area of the insert. All cell monolayers presented TEER values above 200 Ω cm^2. At least one insert of the set was fixed and stained for confocal microscopy analysis (see next section). The remaining ones were used to perform the apical to basolateral permeability assays with the paracellular marker LY. For this, the donor HBSS washing solution was decanted, and the inserts were placed into empty wells of a fresh 12-well plate. The permeability assay was initiated with the addition of 450 µL of the LY solution (20 µM in HBSS at 37 °C) simultaneously to the donor compartments of 3 to 4 insert, from which a 50 µL aliquot was immediately collected and stored for the calculation of the solute concentration in the donor compartment at t = 0. The inserts containing the LY solution were subsequently positioned in a pre-prepared 12-well plate containing HBSS (1.2 mL per well), and the lid-covered plate was placed on the incubator (without CO2, 50 rpm and 37 °C). At the defined sampling times, the plate was positioned into the laminar flow hood and the inserts were transferred into new wells containing fresh HBSS. The high fluorescence quantum yield of LY allows its detection by […], even for the very small amount expected to permeate during short permeation intervals. In this work we used 10, 20, 30, and 60 min or 60 min only as sampling times. At the end of the assay, inserts were transferred to empty wells and 50 µL was taken from the donor compartment for the calculation of the solute mass balance. The remaining solution was decanted, the inserts were placed on new wells containing 1.5 mL of pre-warm HBSS, and 0.5 mL of pre-warmed HBSS was added to each insert for TEER measurements. Some selected monolayers were prepared for microscopy; the remaining were incubated with culture media for re-use, as described below. […]

[1] = day 22, both sampling intervals (10 or 60 min)

In the case of “Lucifer yellow CH di-potassium salt [LY]”, the “LY Papp, µ best fit of Normal distribution to Papp” value (from here on “LY Papp, µ best fit”) (all days, all (88)) is reported as 1.9 10^-7 cm/s, the “LY Papp, µ directly from Papp” value (all days, all (88)) is reported as 2.1 10^-7 cm/s and the “LY Papp, µ best fit” value (all days, re-use (41)) is reported as 1.6 10^-7 cm/s. The “LY Papp, µ directly from Papp” value (all days, re-use (41)) was 1.8 10^-7 cm/s, the “LY QA, µ from Log(QA)” value (all days, single use & re-use, 1st 10 min (65)) was 0.18% and the “LY QA, µ from Log(QA)” value (all days, single use & re-use, 1st 60 min (88)) was 0.20%. The “LY QA, µ from Log(QA)” value (all days, single use & re-use, 2nd 10 min (66)) was 0.21%, the “LY QA, µ from Log(QA)” value (all days, single use & re-use, 3rd 10 min (62)) was 0.25% and the “LY QA, µ from Log(QA)” value (all days, single use & re-use, 4th 30 min (62)) was 0.35%. The “LY QA, µ from Log(QA)” value (all days, single use & re-use, all 1st samplings (153)) was 0.19%, the “LY QA, µ from Log(QA)” value (all days, single use & re-use, all samplings (346)) was 0.23% and the “LY Papp, µ best fit” value (all days, single use (47)) was 2.1 10^-7 cm/s. For the same substance, the “LY Papp, µ directly from Papp” value (all days, single use (47)) was 2.4 10^-7 cm/s, the “LY Papp, µ best fit” value (day 22, all (35)) was 2.0 10^-7 cm/s and the “LY Papp, µ directly from Papp” value (day 22, all (35)) was 2.3 10^-7 cm/s. For the same substance, the “QA (%), µ, LY transported during first sampling interval” value (day 22, batch 1, passage 95, single use, one-time sampling (60 min)) was 0.18%, the “QA (%), µ, LY transported during first sampling interval” value (day 22, batch 1, passage 98, single use, multi-time sampling (10 min)) was 0.19% and the “QA (%), µ, LY transported during first sampling interval” value (day 22, batch 1, passage 100, single use, multi-time sampling (10 min)) was 0.36%. For the same substance, the “QA (%), µ, LY transported during first sampling interval” value (day 22, batch 1, passage 104, single use, multi-time sampling (10 min)) was 0.16%, the “QA (%), µ, LY transported during first sampling interval” value (day 22, batch 1, passage 105, single use, multi-time sampling (10 min)) was 0.22% and the “QA (%), µ, LY transported during first sampling interval” value (day 22, batch 2, passage 95, single use, one-time sampling (60 min)) was 0.27%. The “QA (%), µ, LY transported during first sampling interval” value (day 22, batch 2, passage 98, single use, one-time sampling (60 min)) was 0.30%, the “QA (%), µ, LY transported during first sampling interval” value (day 22, batch 3, passage 95, single use, one-time sampling (60 min)) was 0.19% and the “LogQA, centre of Normal distribution” value [1] was “around −0.6”. For the same substance, the “QA, amount of LY that reaches the acceptor compartment” value [1] was “around 0.2%”, the “LY QA, µ from Log(QA)” value (day 22, single use, 1st 10 min (27)) was 0.25% and the “LY QA, µ from Log(QA)” value (day 22, single use, 1st 60 min (35)) was 0.21%. For the same substance, the “LY QA, µ from Log(QA)” value (day 22, single use, 2nd 10 min (28)) was 0.29%, the “LY QA, µ from Log(QA)” value (day 22, single use, 3rd 10 min (26)) was 0.37% and the “LY QA, µ from Log(QA)” value (day 22, single use, 4th 30 min (28)) was 0.48%. For the same substance, the “LY QA, µ from Log(QA)” value (day 22, single use, all 1st samplings (62)) was 0.23%, the “LY QA, µ from Log(QA)” value (day 22, single use, all samplings (144)) was 0.30% and the “LY Papp, µ best fit” value (day 25, all (29)) was 1.7 10^-7 cm/s. For the same substance, the “LY Papp, µ directly from Papp” value (day 25, all (29)) was 1.9 10^-7 cm/s, the “QA (%), µ, LY transported during first sampling interval” value (day 25, batch 1, passage 95, re-use, one-time sampling (60 min)) was 0.21% and the “QA (%), µ, LY transported during first sampling interval” value (day 25, batch 1, passage 95, single use, one-time sampling (60 min)) was 0.13%. The “QA (%), µ, LY transported during first sampling interval” value (day 25, batch 1, passage 98, single use, multi-time sampling (10 min)) was 0.10%, the “QA (%), µ, LY transported during first sampling interval” value (day 25, batch 1, passage 100, re-use, multi-time sampling (10 min)) was 0.25% and the “QA (%), µ, LY transported during first sampling interval” value (day 25, batch 1, passage 104, single use, multi-time sampling (10 min)) was 0.14%. For the same substance, the “QA (%), µ, LY transported during first sampling interval” value (day 25, batch 1, passage 105, re-use, multi-time sampling (10 min)) was 0.20%, the “QA (%), µ, LY transported during first sampling interval” value (day 25, batch 2, passage 95, re-use, one-time sampling (60 min)) was 0.16% and the “QA (%), µ, LY transported during first sampling interval” value (day 25, batch 2, passage 98, single use, one-time sampling (60 min)) was 0.25%. The “QA (%), µ, LY transported during first sampling interval” value (day 25, batch 3, passage 95, re-use, one-time sampling (60 min)) was 0.19%, the “LY Papp, µ best fit” value (day 25, re-use (23)) was 1.7 10^-7 cm/s and the “LY Papp, µ directly from Papp” value (day 25, re-use (23)) was 1.9 10^-7 cm/s. The “LY QA, µ from Log(QA)” value (day 25, re-use, 1st 10 min (16)) was 0.22%, the “LY QA, µ from Log(QA)” value (day 25, re-use, 1st 60 min (23)) was 0.18% and the “LY QA, µ from Log(QA)” value (day 25, re-use, 2nd 10 min (16)) was 0.28%. For the same substance, the “LY QA, µ from Log(QA)” value (day 25, re-use, 3rd 10 min (16)) was 0.27%.
